Assay results reported in patent US20240059689A1, “PURINE DERIVATIVES AS ANTICANCER AGENTS” (Tango Therapeutics, Inc., priority 2021, published 2024).
Read-outs that look alike come from different tables or passages of the source.

Tests used:
[1] = molecular target: USP1-UAF1 (Homo sapiens, UniProt O94782); assay: Ubiquitin Rhodamine assay of USP1-UAF1 activity; format: biochemical
Protocol: Certain compounds of the disclosure were assessed for USP1-UAF1 activity in a Ubiquitin Rhodamine assay as described in Biology Example 1.

[2] = system: HCC1954; assay: Viability assay, BRCA1 WT cell line HCC1954; format: cell-based; conditions: read-out: HCC1954 rel IC50
Description: (§1) Table 1 also indicates IC50 values in a viability assay for a non-isogenic pair of BRCA1 mutant (column 5-MDA-MB-436) and BRCA1 WT (column 6—HCC1954) cell lines. These values indicate the effect of treatment with compound on cell survival.

[3] = system: MDA-MB-436; assay: Viability assay, BRCA1 mutant cell line MDA-MB-436; format: cell-based; conditions: BRCA1 mutant MDA-MB-436, read-out: MDA-MB-436 rel IC50
Description: as §1

[4] = Homo sapiens, HCC1954, viability
[5] = Homo sapiens, MDA-MB-436, viability

USP1-UAF1, sequence (O94782 whole entry): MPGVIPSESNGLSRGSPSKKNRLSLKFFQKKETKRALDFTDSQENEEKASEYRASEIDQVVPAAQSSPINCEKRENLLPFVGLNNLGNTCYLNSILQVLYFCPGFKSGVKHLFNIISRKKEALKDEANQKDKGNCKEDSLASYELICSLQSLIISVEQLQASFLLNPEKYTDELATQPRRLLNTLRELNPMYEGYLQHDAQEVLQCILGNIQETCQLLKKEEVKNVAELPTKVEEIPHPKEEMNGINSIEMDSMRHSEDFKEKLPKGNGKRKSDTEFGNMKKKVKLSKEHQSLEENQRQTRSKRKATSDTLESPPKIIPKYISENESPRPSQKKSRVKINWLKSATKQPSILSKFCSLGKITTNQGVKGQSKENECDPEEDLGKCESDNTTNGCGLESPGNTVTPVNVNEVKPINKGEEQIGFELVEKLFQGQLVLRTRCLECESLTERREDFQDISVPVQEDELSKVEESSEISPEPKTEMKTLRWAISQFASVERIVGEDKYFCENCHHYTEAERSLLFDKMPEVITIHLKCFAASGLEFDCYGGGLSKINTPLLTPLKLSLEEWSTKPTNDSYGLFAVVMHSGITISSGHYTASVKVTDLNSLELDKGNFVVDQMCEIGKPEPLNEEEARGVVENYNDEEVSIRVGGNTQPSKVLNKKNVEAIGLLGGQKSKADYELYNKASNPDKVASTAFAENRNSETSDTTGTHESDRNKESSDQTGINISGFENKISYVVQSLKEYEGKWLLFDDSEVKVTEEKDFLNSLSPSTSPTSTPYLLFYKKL
USP1-UAF1, sequence (Q8TAF3 whole entry partner): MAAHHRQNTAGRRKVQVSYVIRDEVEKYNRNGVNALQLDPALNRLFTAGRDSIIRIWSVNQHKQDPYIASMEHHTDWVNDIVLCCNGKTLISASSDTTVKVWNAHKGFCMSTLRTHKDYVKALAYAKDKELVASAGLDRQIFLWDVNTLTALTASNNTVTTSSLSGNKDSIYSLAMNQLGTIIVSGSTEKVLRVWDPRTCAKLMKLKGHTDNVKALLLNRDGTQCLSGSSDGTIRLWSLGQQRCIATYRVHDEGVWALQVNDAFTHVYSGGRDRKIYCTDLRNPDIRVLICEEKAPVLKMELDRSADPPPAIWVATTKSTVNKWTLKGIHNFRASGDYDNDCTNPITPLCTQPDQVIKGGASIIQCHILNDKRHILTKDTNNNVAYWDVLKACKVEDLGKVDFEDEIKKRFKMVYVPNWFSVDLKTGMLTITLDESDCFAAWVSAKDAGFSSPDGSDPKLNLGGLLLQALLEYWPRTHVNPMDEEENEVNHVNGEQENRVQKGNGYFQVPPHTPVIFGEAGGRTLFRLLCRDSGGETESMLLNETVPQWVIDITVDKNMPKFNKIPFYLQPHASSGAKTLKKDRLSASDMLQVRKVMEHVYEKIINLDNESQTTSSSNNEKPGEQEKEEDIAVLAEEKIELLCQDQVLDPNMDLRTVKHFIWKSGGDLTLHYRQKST

Compound | IC50 [1] [µM] | IC50 [2, 4] [µM] | IC50 [3, 5] [µM] | IC50 ([2]; viability) [µM] | IC50 ([3]; viability) [µM]
CC(C)c1ccccc1-c1ncc2c(n1)n(Cc1ccc(N3CCC(C(F)(F)F)C3)cc1)c(=N)n2C (single isomer, unassigned) [Example A-10d, 2-(2-isopropylphenyl)-7-methyl-9-(4-(3-(trifluoromethyl)pyrrolidin-1-yl)benzyl)-7,9-dihydro-8H-purin-8-imine] | 0.1 to 10 |  |  |  | 
CC(C)c1ccccc1-c1ncc2c(n1)n(Cc1ccc(N3CCC(C(F)(F)F)C3)cc1)c(=N)n2C (single isomer, unassigned) [Example A-10e, 2-(2-isopropylphenyl)-7-methyl-9-(4-(3-(trifluoromethyl)pyrrolidin-1-yl)benzyl)-7,9-dihydro-8H-purin-8-imine] | 0.1 to 10 |  |  |  | 
Cc1nc(-c2ccccc2)nc2c1n(C)c(=N)n2Cc1ccc(-c2nc(C(F)(F)F)cn2C)cc1 (single isomer, unassigned) [Example A-15b, 6,7-dimethyl-9-(4-(1-methyl-4-(trifluoromethyl)-1H-imidazol-2-yl)benzyl)-2-phenyl-7,9-dihydro-8H-purin-8-imine] | 0.1 to 10 | 0.25 to 10 | 0.25 to 10 |  | 
CC(C)c1ccccc1-c1ncc2c(n1)n(Cc1ccc(-c3nccn3C)cc1)c(=N)n2C [Example A-2, 2-(2-isopropylphenyl)-7-methyl-9-(4-(1-methyl-1H-imidazol-2-yl)benzyl)-7H-purin-8(9H)-imine] | 0.1 to 10 | ≥ 10 | 0.25 to 10 |  | 
CC(C)c1ccccc1-c1ncc2c(n1)n(Cc1ccc(-c3ncc[nH]3)cc1)c(=N)n2C [Example A-4, 9-(4-(1H-imidazol-2-yl)benzyl)-2-(2-isopropylphenyl)-7-methyl-7H-purin-8(9H)-imine] | 0.1 to 10 |  |  |  | 
CC(C)c1ccccc1-c1ncc2c(n1)n(Cc1ccc(-c3cc(Cl)cn3C)cc1)c(=N)n2C [Example A-7, 9-(4-(4-chloro-1-methyl-1H-pyrrol-2-yl)benzyl)-2-(2-isopropylphenyl)-7-methyl-7,9-dihydro-8H-purin-8-imine] | 0.1 to 10 | 0.25 to 10 | 0.25 to 10 |  | 
COc1nc(-c2ccccc2C(C)C)nc2c1n(C)c(=N)n2Cc1ccc(-c2nc(C(F)(F)F)cn2C)cc1 [Example A-20, 2-(2-isopropylphenyl)-6-methoxy-7-methyl-9-(4-(1-methyl-4-(trifluoromethyl)-1H-imidazol-2-yl)benzyl)-7,9-dihydro-8H-purin-8-imine] | 0.1 to 10 | 0.25 to 10 | 0.25 to 10 |  | 
CC(C)c1ccccc1-c1nc(O)c2c(n1)n(Cc1ccc(-c3nc(C(F)(F)F)cn3C)cc1)c(=N)n2C [Example A-32, 8-imino-2-(2-isopropylphenyl)-7-methyl-9-(4-(1-methyl-4-(trifluoromethyl)-1H-imidazol-2-yl)benzyl)-8,9-dihydro-7H-purin-6-ol] | 0.1 to 10 | ≥ 10 | 0.25 to 10 |  | 
Cn1cc(Cl)nc1-c1ccc(Cn2c(=N)n(C)c3c(C#CC4CC4)nc(-c4ccccc4Cl)nc32)cc1 [Example A-46, 9-(4-(4-chloro-1-methyl-1H-imidazol-2-yl)benzyl)-2-(2-chlorophenyl)-6-(cyclopropylethynyl)-7-methyl-7,9-dihydro-8H-purin-8-imine] |  | 0.25 to 10 | 0.25 to 10 |  | 
Cc1cnn(C)c1-c1ncc2c(n1)n(Cc1ccc(-c3nc(C(F)(F)F)cn3C)cc1)c(=N)n2C [Example T-012] | 0.1 to 10 | ≥ 10 | 0.25 to 10 |  | 
COc1ncnc(C2CC2)c1-c1ncc2c(n1)n(Cc1cc(-c3nc(C(F)(F)F)cn3C)cs1)c(=N)n2C [Example T-014] | 0.1 to 10 | ≥ 10 | 0.25 to 10 |  | 
Cn1cc(C(F)(F)F)nc1-c1ccc(Cn2c(=N)n(C)c3cnc(-c4c(C#N)cnn4C)nc32)cc1 [Example T-022] | 0.1 to 10 | ≥ 10 | 0.25 to 10 |  | 
CC(C)c1ccccc1-c1ncc2c(n1)n(Cc1ccc(N3C[C@@H](C(F)(F)F)C[C@H]3C)cc1)c(=N)n2C [Example T-024] | 0.1 to 10 |  |  |  | 
COc1ncnc(C2CC2)c1-c1ncc2c(n1)n(Cc1cc(C)c(-c3nc(C(F)(F)F)cn3C)cc1C)c(=N)n2C [Example T-026] | 0.1 to 10 | ≥ 10 | 0.25 to 10 |  | 
Cn1cc(C(F)(F)F)nc1-c1ccc(Cn2c(=N)n(C)c3cnc(-c4cccnc4C4(C#N)CC4)nc32)cc1 [Example T-041] | 0.1 to 10 | ≥ 10 | 0.25 to 10 |  | 
COc1ncccc1-c1ncc2c(n1)n(C1(c3ccc(-c4nc(C(F)(F)F)cn4C)cc3)CC1)c(=N)n2C [Example T-043] | 0.1 to 10 | ≥ 10 | 0.25 to 10 |  | 
Cn1cc(C(F)(F)F)nc1-c1cc(F)c(Cn2c(=N)n(C)c3cnc(-c4ccccc4C(F)(F)F)nc32)c(F)c1 [Example T-046] | 0.1 to 10 | ≥ 10 | 0.25 to 10 |  | 
COn1cc(C(F)(F)F)nc1-c1ccc(Cn2c(=N)n(C)c3cnc(-c4ccccc4C(F)(F)F)nc32)nc1 [Example T-048] | 0.1 to 10 | ≥ 10 | 0.25 to 10 |  | 
Cn1cc(C(F)(F)F)nc1-c1ccc(Cn2c(=N)n(C)c3cnc(-c4cccnc4C#N)nc32)cc1 [Example T-050] | 0.1 to 10 | ≥ 10 | ≥ 10 |  | 
COc1cc(C(F)(F)F)nn1-c1ccc(Cn2c(=N)n(C)c3cnc(-c4ccccc4C(F)(F)F)nc32)cn1 [Example T-055] | 0.1 to 10 | ≥ 10 | 0.25 to 10 |  | 
COc1ccn(-c2ccc(Cn3c(=N)n(C)c4cnc(-c5ccccc5C(C)C)nc43)cc2C)n1 [Example T-056] | 0.1 to 10 | 0.25 to 10 | 0.25 to 10 |  | 
COc1ncncc1-c1ncc2c(n1)n(Cc1ccc(-c3nc(C(F)(F)F)cn3C)cc1)c(=N)n2C [Example T-058] | 0.1 to 10 | ≥ 10 | ≥ 10 |  | 
Cc1noc(C)c1-c1ncc2c(n1)n(Cc1ccc(-c3nc(C(F)(F)F)cn3C)cc1)c(=N)n2C [Example T-062] | 0.1 to 10 | ≥ 10 | 0.25 to 10 |  | 
CC(C)c1ccccc1-c1ncc2c(n1)n(Cc1ccc(-c3cccn3C)cc1)c(=N)n2C [Example T-088] | 0.1 to 10 |  |  |  | 

Other lines, results leading:

IC50 [1] [µM] | IC50 [2, 4] [µM] | IC50 [3, 5] [µM] | IC50 ([2]; viability) [µM] | IC50 ([3]; viability) [µM] | Compound
0.1 to 10 |  |  | ≥ 10 | 0.25 to 10 | CC(C)c1ccccc1-c1ncc2c(n1)n(C(C)C1CCN(c3nc(Cl)cn3C)CC1)c(=N)n2C (single isomer, unassigned) [Example A-26d, 9-(1-(1-(4-chloro-1-methyl-1H-imidazol-2-yl)piperidin-4-yl)ethyl)-2-(2-isopropylphenyl)-7-methyl-7,9-dihydro-8H-purin-8-imine]
0.1 to 10 | ≥ 10 | 0.25 to 10 |  |  | CNC(=O)c1nc(-c2ccccc2C(C)C)nc2c1n(C)c(=N)n2Cc1ccc(-c2nc(C(F)(F)F)cn2C)cc1 [Example A-39, 8-imino-2-(2-isopropylphenyl)-N, 7-dimethyl-9-(4-(1-methyl-4-(trifluoromethyl)-1H-imidazol-2-yl)benzyl)-8,9-dihydro-7H-purine-6-carboxamide]
0.1 to 10 | ≥ 10 | 0.25 to 10 |  |  | CC(C)c1ccccc1-c1nc(C(=O)N(C)C)c2c(n1)n(Cc1ccc(-c3nc(C(F)(F)F)cn3C)cc1)c(=N)n2C [Example A-40, 8-imino-2-(2-isopropylphenyl)-N,N, 7-trimethyl-9-(4-(1-methyl-4-(trifluoromethyl)-1H-imidazol-2-yl)benzyl)-8,9-dihydro-7H-purine-6-carboxamide]
0.1 to 10 | 0.25 to 10 | 0.25 to 10 |  |  | CC#Cc1nc(-c2ccccc2Cl)nc2c1n(C)c(=N)n2Cc1ccc(-c2nc(Cl)cn2C)cc1 [Example A-45, 9-(4-(4-chloro-1-methyl-1H-imidazol-2-yl)benzyl)-2-(2-chlorophenyl)-7-methyl-6-(prop-1-yn-1-yl)-7,9-dihydro-8H-purin-8-imine]
0.03 to 0.1 |  |  |  |  | Cc1cccc(Cl)c1-c1ncc2c(n1)n(Cc1ccc(-c3nc(C(F)(F)F)cn3C)cc1)c(=N)n2C [Example B-7, 2-(2-chloro-6-methylphenyl)-7-methyl-9-(4-(1-methyl-4-(trifluoromethyl)-1H-imidazol-2-yl)benzyl)-7,9-dihydro-8H-purin-8-imine]
0.1 to 10 | 0.25 to 10 | 0.25 to 10 |  |  | CC(C)c1ccccc1-c1ncc2c(n1)n(CC1CCC(c3nc(C(F)(F)F)cn3C)CC1)c(=N)n2C (centres unmarked) [Example T-006]
0.1 to 10 | ≥ 10 | 0.25 to 10 |  |  | COc1ncnc(C2CC2)c1-c1ncc2c(n1)n(Cc1ccc(-c3nc(C(F)(F)F)cn3C)s1)c(=N)n2C [Example T-007]
0.1 to 10 | ≥ 10 | 0.25 to 10 |  |  | Cn1cc(C(F)(F)F)nc1-c1ccc(Cn2c(=N)n(C)c3cnc(-c4c(C5CC5)cnn4C)nc32)cc1 [Example T-017]
0.1 to 10 | ≥ 10 | 0.25 to 10 |  |  | Cn1cc(C(F)(F)F)nc1-c1ccc(Cn2c(=N)n(C)c3cnc(-c4cccnc4C(F)(F)F)nc32)cc1 [Example T-025]
0.1 to 10 | ≥ 10 | 0.25 to 10 |  |  | COc1nccc(C)c1-c1ncc2c(n1)n(Cc1ccc(-c3nc(C(F)(F)F)cn3C)cc1)c(=N)n2C [Example T-028]
0.1 to 10 | ≥ 10 | 0.25 to 10 |  |  | Cn1cc(C(F)(F)F)nc1-c1ccc(Cn2c(=N)n(C)c3cnc(-c4cccnc4CC(F)(F)F)nc32)cc1 [Example T-042]
0.1 to 10 | 0.25 to 10 | 0.25 to 10 |  |  | Cn1c(=N)n(Cc2ccc(-c3nc(C(F)(F)F)c[nH]3)c(F)c2)c2nc(-c3ccccc3C(F)(F)F)ncc21 [Example T-068]
